Reference: patent US20080312164A1 (priority 2006, published 2008)
Marks after values point to notes of the source that are not given here.

How the values were obtained:
[1] = test system: Du145 cells; experiment: Calcein AM cytotoxicity assay, Du145; type: cell-based; conditions: Homo sapiens, DU-145; Du145, Calcein AM, 72 h; read-out: IC50
Excerpt: (§1) Five serial 1:2 dilutions were made with anhydrous DMSO at 100× the final concentration used in the assay.

[2] = test system: MCF7 cells; experiment: Calcein AM cytotoxicity assay, MCF7; type: cell-based; conditions: Homo sapiens; MCF7, Calcein AM, 72 h; read-out: IC50
Excerpt: as §1

[3] = test system: HCT-116 cells; experiment: Calcein AM cytotoxicity assay, HCT-116; type: cell-based; conditions: Homo sapiens; HCT-116, Calcein AM, 72 h; read-out: IC50
Excerpt: as §1

[4] = test system: Du145 cells; experiment: Cell Titer-Glo cytotoxicity assay, Du145; type: cell-based; conditions: Homo sapiens, DU-145; Du145, Cell Titer-Glo, 72 h; read-out: IC50
Excerpt: as §1

[5] = test system: NCI-H460 cells; experiment: Cell Titer-Glo cytotoxicity assay, NCI-H460; type: cell-based, human; conditions: NCI-H460, Cell Titer-Glo, 72 h
Excerpt: as §1

[6] = test system: human cancer cell lines; experiment: Cytotoxicity across the panel of human cancer cell lines (average, high-throughput assays); type: cell-based; conditions: average across eight human cancer cell lines, MTT (HT-29) values excluded; for IC50: read-out: Cancerous Average IC50 / Average IC50 in Cancer Cell Lines
Excerpt: as §1

[7] = test system: NCI/ADR RES cells; experiment: Calcein AM cytotoxicity assay, NCI/ADR-RES; type: cell-based; conditions: Homo sapiens, Calcein AM, 72 h, read-out: IC50
Excerpt: as §1

[8] = test system: MCF7 cells; experiment: Cell Titer-Glo cytotoxicity assay, MCF7; type: cell-based, human; conditions: Homo sapiens; MCF7, Cell Titer-Glo, 72 h; read-out: IC50
Excerpt: as §1

[9] = test system: Hep3B cells; experiment: Cell Titer-Glo cytotoxicity assay, Hep3B; type: cell-based; conditions: Homo sapiens, Cell Titer-Glo, 72 h, read-out: IC50
Excerpt: as §1

[10] = test system: SF-268 cells; experiment: Calcein AM cytotoxicity assay, SF-268; type: cell-based; conditions: Homo sapiens; SF-268, Calcein AM, 72 h; read-out: IC50
Excerpt: as §1

[11] = test system: SK-OV-3 cells; experiment: Calcein AM cytotoxicity assay, SK-OV-3; type: cell-based; conditions: Homo sapiens; SK-OV-3, Calcein AM, 72 h; read-out: IC50
Excerpt: as §1

[12] = test system: SK-OV-3 cells; experiment: Cell Titer-Glo cytotoxicity assay, SK-OV-3; type: cell-based; conditions: Homo sapiens; SK-OV-3, Cell Titer-Glo, 72 h; read-out: IC50
Excerpt: as §1

[13] = test system: HT-29 cells; experiment: MTT cytotoxicity assay, HT-29; type: cell-based; conditions: Homo sapiens; HT-29, MTT, 24 h; read-out: IC50
[14] = test system: NCI/ADR RES cells; experiment: Cell Titer-Glo cytotoxicity assay, NCI/ADR-RES; type: cell-based, human; conditions: Homo sapiens; NCI/ADR-RES, Cell Titer-Glo, 72 h; read-out: IC50
Excerpt: as §1

[15] = test system: NCI-H460 cells; experiment: Calcein AM cytotoxicity assay, NCI-H460; type: cell-based; conditions: Homo sapiens; NCI-H460, Calcein AM, 72 h; read-out: IC50
Excerpt: as §1

[16] = test system: SF-268 cells; experiment: Cell Titer-Glo cytotoxicity assay, SF-268; type: cell-based; conditions: Homo sapiens; SF-268, Cell Titer-Glo, 72 h; read-out: IC50
Excerpt: as §1

[17] = test system: NmuMG mouse mammary normal epithelial cells; experiment: Cell Titer-Glo cytotoxicity assay, NmuMG; type: cell-based; conditions: Mus musculus, Epithelial cell; NmuMG, Cell Titer-Glo, 72 h; read-out: IC50
Excerpt: as §1

[18] = test system: Hep3B cells; experiment: Calcein AM cytotoxicity assay, Hep3B; type: cell-based; conditions: Homo sapiens, 72 h
Excerpt: as §1

[19] = test system: HCT-116 cells; experiment: Cell Titer-Glo cytotoxicity assay, HCT-116; type: cell-based; conditions: Homo sapiens; HCT-116, Cell Titer-Glo, 72 h; read-out: IC50
Excerpt: as §1

[20] = test system: NmuMG mouse mammary normal epithelial cells; experiment: Calcein AM cytotoxicity assay, NmuMG; type: cell-based; conditions: Epithelial cell, NmuMG, Calcein AM, 72 h, read-out: IC50
Excerpt: as §1

| Compound | IC50 [1] [µM] | IC50 [2] [µM] | IC50 [3] [µM] | IC50 [4] [µM] | IC50 ([5]; Homo sapiens, read-out: IC50) [µM] | IC50 [6] [µM] | IC50 [7] [µM] | IC50 [8] [µM] | IC50 [9] [µM] | IC50 [10] [µM] | IC50 [11] [µM] | IC50 [12] [µM] | IC50 [13] [µM] | IC50 [14] [µM] | IC50 [15] [µM] | IC50 [16] [µM] | IC50 [17] [µM] | IC50 ([18]; Calcein AM, read-out: IC50) [µM] | IC50 [19] [µM] | IC50 [20] [µM] | other results |
| --- | --- | --- | --- | --- | --- | --- | --- | --- | --- | --- | --- | --- | --- | --- | --- | --- | --- | --- | --- | --- | --- |
| S=C=NCc1ccc(Br)cc1 [Compound 26, 1-bromo-4-(isothiocyanatomethyl)benzene] | 7.67 | 7.08 | 5.16 | 10.1 | > 20 | 10.7 | > 20 | 5.92 | 6.8 | 10.9 | 3.94 | 7.17 | 47.4 | 22.3 | 16 | 6.96 | 9.77 | 7.16 | 9.8 | 18.3 | – |
| CCCCc1ccc(N=C=S)cc1 [Compound 21, 1-butyl-4-isothiocyanatobenzene] | > 50 | 45.8 | > 50 | 48 | > 50 | 35.2 | > 50 | 45.4 | > 50 | 21.5 | 15.9 | 31.4 | > 50 | > 50 | > 50 | 32.1 | 65.7 | > 50 | 19.4 | 71.9 | IC50 [5]: ^fNon-inhibitory in Hep3B, NCI/ADR RES, NCI-H460; Cancerous Average IC50 / Average IC50 in Cancer Cell Lines [6]: 35.25^f μM |
| S=C=NCc1ccc2c(c1)OCO2 [Compound 29, 5-(isothiocyanatomethyl)benzo[d][1,3]dioxole] | 2.18 | 3.15 | > 20 | 6.24 | 11.5 | 5.77 | 6.39 | 2.51 | 4.3 | 2.55 | 2.79 | 4.44 | 30.3 | 9.77 | 9.59 | 3.92 | 17 | 3.9 | 4.77 | < 12.5 | – |
| C[S+]([O-])CCCCN=C=S (racemic) [Compound 13, 1-isothiocyanato-4-(methylsulfinyl)butane] | 6.25 | 7.28 | 6.13 | 8.62 | 10.1 | 7.61 | 13.1 | 8.59 | 2.75 | 5.69 | 5.65 | 9.9 | 46.4 | 16.5 | 13 | 6.22 | 3.2 | – | 4.81 | 5.61 | IC50 [18]: < 3.13 µM |
| S=C=N[C@H]1CCCc2ccccc21 [Compound 31, (S)-1-isothiocyanato-1,2,3,4-tetrahydronaphthalene] | 12.4 | 14.5 | 33 | 17.4 | 31.6 | 17.2 | 25.1 | 14.4 | 20.1 ± 0.53 | 8.51 | > 30 | 12.7 | > 50 | 30.9 | 25.4 | 10.5 | 15.4 | 13.1 | 12.2 | 18.6 | – |
